The record followed here is US5220064A, “Substituted 4'-hydroxyphenylacetic acid derivatives having antiinflammatory and analgesic activity” (Warner-Lambert Company, priority 1989, dated 1993).

The subject of the assay is mice. In words: acetic acid-induced stretching/writhing test in mice (based on Koster et al.). The format is in vivo. The following applies: Mus musculus, sc; subcutaneous, 30 minutes before peritoneal acetic acid (100 mg/kg); mice fasted 24 hours; 15 minute observation; read-out: ED50 (amount producing the desired inhibition of stretching or "writhing" in 50 percent of a population). An excerpt: Illustrative examples of the activity for use as described above for the novel compounds of the present invention are shown as the compound of the noted examples described in the following material when administered in a test based on that of Koster et al. [Fed. Proc., Vol. 18 (1959), p. 412] in which the peritoneal injection of acetic acid to mice provokes repeated stretching and twisting movements which persist for more than six hours. Analgesics prevent or suppress these syndromes which are considered to be an exteriorization of a diffuse abdominal pain. A 1% solution of acetic acid in water is used at a dose of 0.01 ml/g or 100 mg/kg of acetic acid to release the syndrome.
The compound to be tested is subcutaneously administered 30 minutes before the acetic acid injection and the mice are fasted 24 hours before the start of the test. The stretching for the mice is observed and totaled for each mouse in a 15 minute observation period starting just after the acetic acid injection. The results are expressed as mg/kg which amount produces the desired inhibition of stretching or "writhing" in 50 percent of a population.
Regarding `CCCCCCCCNC(=O)Cc1ccc(O)c(Cl)c1` [Example 1, Benzeneacetamide, 3-Chloro-4-hydroxy-N-octyl-], the ED50 was found to be 6.1 mg/kg.
On to `CCCCCCCCNC(=O)Cc1ccc(O)c(Br)c1` [Example 2, Benzeneacetamide, 3-Bromo-4-hydroxy-N-octyl-], for which the ED50 amounted to 2.5 mg/kg.
`CCCCCCCCNC(=O)Cc1ccc(O)c(F)c1` [Example 3, Benzeneacetamide, 3-Fluoro-4-hydroxy-N-octyl-]: the ED50 is 3.2 mg/kg.
